Drawing on PubChem BioAssay (NCI), this text covers TGI and GI50 for ten compounds.

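Test compounds were applied to cells in 96-well plates for 48 hours at 5 doses. The concentration for 50% growth inhibition is given as GI50. At the TGI there is no net growth.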 A value given as a limit tells only on which side of the number the result lay.

Among the test systems are SNB-19 CNS; CAKI-1 renal; KM12 colon; A498 renal; SK-MEL-28 melanoma; EKVX NSCLC; SK-MEL-5 melanoma; SN12C renal; RXF 393 renal; OVCAR-8 ovarian.
What all share (experiment): inhibition of tumour cell growth, NCI panel, 48 h

Consider `COc1cc2cc3c4c(cc(OC)c(OC)c4c2cc1OC)CCN3C(=O)CCCC(=O)O`, for which the TGI with SNB-19 CNS, in the test with CAKI-1 renal, with KM12 colon, with A498 renal, in the test with SK-MEL-28 melanoma and with EKVX NSCLC was above 100 µM each time. The TGI in the test with SK-MEL-5 melanoma, in the test on SN12C renal and in the test on RXF 393 renal was above 100 µM in each case.
In the case of `COc1ccc(/C=C/C(=O)c2sc(N)nc2C)cc1`, the TGI in the test with SNB-19 CNS, in the test on CAKI-1 renal, with KM12 colon, in the test on A498 renal, in the test with SK-MEL-28 melanoma and in the test on EKVX NSCLC was above 100 µM each time. Also, the TGI with OVCAR-8 ovarian, in the test on SK-MEL-5 melanoma, with SN12C renal and in the test with RXF 393 renal was above 100 µM throughout.
For the compound `COc1cc(CNC(=O)/C=C/C=C/c2ccc3c(c2)OCO3)ccc1OCc1cn(-c2ccc(Cl)c(Cl)c2)nn1`, the GI50 in the test with SNB-19 CNS is 2.5 µM; in the test with CAKI-1 renal it was 1.62 µM; in the test with KM12 colon it was 2.41 µM; with A498 renal, 1.57 µM; with SK-MEL-28 melanoma it was 1.67 µM; with EKVX NSCLC, 2.95 µM. Moreover, the GI50 in the test on OVCAR-8 ovarian is 2.35 µM; in the test with SK-MEL-5 melanoma, 1.77 µM; with SN12C renal, 1.82 µM; with RXF 393 renal, 1.69 µM. Also, the TGI was 12.4 µM with SNB-19 CNS; 3.57 µM in the test on CAKI-1 renal; 7.25 µM in the test with KM12 colon; 3.22 µM in the test with A498 renal; 3.46 µM in the test on SK-MEL-28 melanoma; 13.4 µM in the test with EKVX NSCLC. Further, the TGI stood at 8.15 µM with OVCAR-8 ovarian, 3.69 µM with SK-MEL-5 melanoma, 4.93 µM with SN12C renal and 3.75 µM in the test with RXF 393 renal.
As to `C[N+](C)(C)CCOP(=O)(O)OP(=O)([O-])OCC1CCC(n2ccc(N)nc2=O)O1` (stereo unspecified), the TGI in the test with SNB-19 CNS, with CAKI-1 renal, with KM12 colon, with A498 renal, in the test on SK-MEL-28 melanoma and in the test with EKVX NSCLC was above 100 µM in each case. The TGI in the test with OVCAR-8 ovarian, in the test with SK-MEL-5 melanoma, with SN12C renal and in the test on RXF 393 renal was above 100 µM each time.
On to `CC(=O)OC1(C#N)CC2OC1C1C2N1C(=O)c1ccccc1` (stereo unspecified), for which the TGI in the test on SNB-19 CNS, in the test on CAKI-1 renal, in the test with A498 renal, with SK-MEL-28 melanoma, with EKVX NSCLC and in the test with OVCAR-8 ovarian was above 100 µM each time. For the same compound, the TGI with SK-MEL-5 melanoma, with SN12C renal and with RXF 393 renal was above 100 µM in each case.
`OC(c1cc(C(O)(C(F)(F)F)C(F)(F)F)ncn1)(C(F)(F)F)C(F)(F)F`: the TGI in the test with SNB-19 CNS, in the test on CAKI-1 renal, with KM12 colon, in the test with A498 renal, in the test on SK-MEL-28 melanoma and with EKVX NSCLC was above 10 µM each time. Also, the TGI in the test on OVCAR-8 ovarian, in the test with SK-MEL-5 melanoma, in the test with SN12C renal and with RXF 393 renal was above 10 µM each time.
For `CCN(CC)CCn1ncc2ccc3c(c(=O)c4cccnc4n3CCN(CC)CC)c21`, the TGI came out at 9.97 µM in the test with SNB-19 CNS; 9.71 µM in the test with CAKI-1 renal; 4.01 µM with KM12 colon; 2.24 µM with A498 renal; 4.01 µM in the test with SK-MEL-28 melanoma; 6.83 µM in the test on EKVX NSCLC. The TGI worked out at 3.63 µM in the test with OVCAR-8 ovarian, 2.38 µM in the test on SK-MEL-5 melanoma, 8.15 µM in the test with SN12C renal and 2.8 µM with RXF 393 renal.
Take `C/C(CC(O)(C(F)(F)F)C(F)(F)F)=N\N`: the TGI in the test with SNB-19 CNS, in the test on CAKI-1 renal, in the test on KM12 colon, with A498 renal, with SK-MEL-28 melanoma and with EKVX NSCLC was above 10 µM in each case. Moreover, the TGI in the test with OVCAR-8 ovarian, in the test with SK-MEL-5 melanoma, in the test with SN12C renal and in the test with RXF 393 renal was above 10 µM in each case.
For the compound `CC(C)=CC/C=C(/C)[C@H]1CC[C@]2(C)[C@@H]1CC[C@@H]1[C@@]3(C)CCC(=O)NC(C)(C)[C@@H]3CC[C@]12C`, the GI50 with SNB-19 CNS was 25 µM; in the test on CAKI-1 renal it was 19.6 µM; in the test on KM12 colon, 18.7 µM; in the test with A498 renal, 23.6 µM; in the test with SK-MEL-28 melanoma it was 16.7 µM; with EKVX NSCLC it was 27.7 µM. Besides, the GI50 in the test with OVCAR-8 ovarian was 26 µM; with SK-MEL-5 melanoma, 13.3 µM; with SN12C renal, 16.1 µM; in the test with RXF 393 renal, 16.8 µM. The TGI came out at 72.4 µM in the test with SNB-19 CNS; 40.3 µM with CAKI-1 renal; 37.5 µM in the test with KM12 colon; 67.5 µM in the test on A498 renal; 31.6 µM in the test on SK-MEL-28 melanoma; 84 µM in the test with EKVX NSCLC. Besides, the TGI in the test with OVCAR-8 ovarian was 76.7 µM; in the test with SK-MEL-5 melanoma, 26.4 µM; with SN12C renal, 33.8 µM; with RXF 393 renal, 32.4 µM.
In the case of `CCN1CCN(CCOc2ccc(CNc3ccc4nc(CCC5CCCCC5)[nH]c4c3)cc2)CC1`, the GI50 was 3.58 µM in the test on SNB-19 CNS; 2.01 µM in the test on CAKI-1 renal; 2.96 µM with KM12 colon; 1.44 µM in the test on A498 renal; 2.25 µM in the test with EKVX NSCLC; 2.45 µM with OVCAR-8 ovarian. Moreover, the GI50 was 1.73 µM in the test with SK-MEL-5 melanoma, 2.72 µM with SN12C renal and 1.3 µM with RXF 393 renal. Further, the TGI in the test on SNB-19 CNS was found to be 13 µM; in the test on CAKI-1 renal, 4.11 µM; in the test with KM12 colon, 9.82 µM; in the test on A498 renal, 3.35 µM; with EKVX NSCLC, 9.15 µM; in the test with OVCAR-8 ovarian, 7.04 µM. Moreover, the TGI amounted to 3.17 µM in the test on SK-MEL-5 melanoma, 11 µM in the test with SN12C renal and 3.31 µM with RXF 393 renal.
